Tested on: Jurkat T-cells
Assay: CRMP2 polarization in Jurkat cells adhering to collagen I-coated slides (immunofluorescence)
Type: cell-based
Method: The CRMP2 forms, Yes kinase and intermediary filament vimentin were detected by indirect immunofluorescence on Jurkat and primary T-cells adhered to collagen I-coated slides (20 μg/ml) and fixed following treatment (acetone −20° C.; 10 min). Cells were incubated with specific antibody (1 h, 37° C.) then with Alexa 488- or 546-conjugated anti-mouse or anti-rabbit or anti-sheep IgG antibodies (1 h, 37° C.) and examined using the Axioplan II fluorescence microscope (Carl Zeiss). Nuclear counter-staining was performed using a fluorescent DNA intercalant, 4′, 6′-diamidino-2-phenylindole (DAPI, Boehringer Mannheim).
To define a link between chemokines and CRMP2, the inventors first examined the localization of CRMP2 in Jurkat T-cells under CXCL12 signaling. They used two different anti-CRMP2 antibodies (anti-C-ter and anti-pep4) that recognize the full-length and cleaved products of CRMP2. […] This phenomenon of CRMP2 polarization was still observed after 30 minutes of treatment. […] In addition CRMP2 distribution to the uropod was concomitant with the re-localization of vimentin, which was quickly redistributed at the trailing edge of polarizing T-cells.

Row | Compound | increase of cells with polarized (asymmetrical) CRMP2 distribution (CXCL12 100 ng/mL, 2, 5 or 10 min, versus un-treated Jurkat T-cells) | decrease of CXCL12-induced CRMP2 re-localization (Jurkat cells treated with CXCL12 (100 ng/mL) in the presence of AMD3100)
1 | CXCL12: chemokine, stromal-derived-factor-1, ligand of the CXCR4 receptor | 1.6 to 2 fold | 
2 | c1cc(CN2CCCNCCNCCCNCC2)ccc1CN1CCCNCCNCCCNCC1 [AMD3100] |  | 35%
